Assays:
human recombinant HDAC1 = target: T1, human recombinant HDAC1 (Homo sapiens, UniProt Q13547); assay: HDAC enzyme activity inhibition assay (HDAC1, fluorimetric kit); type: biochemical; conditions: 0.3 μg enzyme, 10 μM substrate, 30° C., 60 minutes
T1 construct: purchased Enzo Life Science BML-SE456
Procedure: In order to examine the HDAC6 selectivity of the compounds of formula I of the present invention by HDAC1 and HDAC6 enzymatic activity inhibition assays, an experiment was performed using a conventional substance as a control. HDAC enzyme activity was measured using a HDAC Fluorimetric Drug Discovery Kit (BML-AK511, 516) from Enzo Life Science. For the HDAC1 enzyme activity test, human recombinant HDAC1 (BML-SE456) was used as an enzyme source, and Fluor de Lys®-“SIRT1 (BNL-KI177) was used as a substrate. A 5-fold dilution of the compound was seeded into a 96-well plate, and then 0.3 μg of the enzyme and 10 μM of the substrate were added to each well of the plate and allowed to react at 30° C. for 60 minutes. Then, Fluor de Lys®-Developer II (BML-KI176) was added thereto and allowed to react for 30 minutes, after which the fluorescence value (Ex 360, Em 460) was measured using a multi-plate reader (Flexstation 3, Molecular Device). The HDAC6 enzyme was tested using human recombinant HDAC6 (382180) from Calbiochem, according to the same protocol as the HDAC1 enzyme activity test method. Based on the resulting values, each IC50 value was calculated using GraphPad Prism4.0 program.

human recombinant HDAC6 = target: T2, human recombinant HDAC6 (Homo sapiens, UniProt Q9UBN7); assay: HDAC enzyme activity inhibition assay (HDAC6, fluorimetric kit); type: biochemical; conditions: for HDAC6 selectivity (fold): HDAC6 versus HDAC1; for IC50: same protocol as the HDAC1 test
T2 construct: purchased Calbiochem 382180
T2 sequence (Q9UBN7 1-1215): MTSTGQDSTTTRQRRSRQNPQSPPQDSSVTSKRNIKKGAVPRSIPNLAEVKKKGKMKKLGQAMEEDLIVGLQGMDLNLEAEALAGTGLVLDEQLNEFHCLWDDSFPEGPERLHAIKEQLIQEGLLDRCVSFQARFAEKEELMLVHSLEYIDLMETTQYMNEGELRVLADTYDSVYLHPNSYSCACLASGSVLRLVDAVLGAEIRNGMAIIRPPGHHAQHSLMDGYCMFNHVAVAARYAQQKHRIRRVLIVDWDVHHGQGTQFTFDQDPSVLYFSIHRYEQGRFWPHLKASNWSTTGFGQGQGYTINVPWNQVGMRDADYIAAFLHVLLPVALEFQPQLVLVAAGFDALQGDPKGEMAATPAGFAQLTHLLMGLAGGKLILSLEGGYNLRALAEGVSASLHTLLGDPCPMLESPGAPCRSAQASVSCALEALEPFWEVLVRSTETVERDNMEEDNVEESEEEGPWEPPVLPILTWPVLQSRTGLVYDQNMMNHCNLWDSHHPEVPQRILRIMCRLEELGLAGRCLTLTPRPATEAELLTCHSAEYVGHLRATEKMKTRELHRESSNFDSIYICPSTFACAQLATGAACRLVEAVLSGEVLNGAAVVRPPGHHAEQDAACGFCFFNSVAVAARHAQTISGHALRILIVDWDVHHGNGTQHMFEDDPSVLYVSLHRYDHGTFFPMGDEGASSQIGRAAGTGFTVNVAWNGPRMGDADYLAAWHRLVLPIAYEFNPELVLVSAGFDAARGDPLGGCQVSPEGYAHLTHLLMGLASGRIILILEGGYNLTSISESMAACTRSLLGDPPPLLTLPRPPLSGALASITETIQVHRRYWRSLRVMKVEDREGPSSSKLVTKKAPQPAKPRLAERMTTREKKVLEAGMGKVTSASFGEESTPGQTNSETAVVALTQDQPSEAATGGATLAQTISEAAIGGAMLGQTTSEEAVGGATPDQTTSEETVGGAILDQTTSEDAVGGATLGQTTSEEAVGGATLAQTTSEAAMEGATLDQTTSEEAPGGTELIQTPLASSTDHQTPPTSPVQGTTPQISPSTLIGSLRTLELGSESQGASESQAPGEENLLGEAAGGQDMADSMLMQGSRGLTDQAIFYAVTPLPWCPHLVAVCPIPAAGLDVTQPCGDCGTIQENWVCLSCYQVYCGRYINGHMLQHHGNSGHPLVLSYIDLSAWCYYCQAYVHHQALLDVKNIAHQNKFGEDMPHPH
How it was run: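 Fluorimetric kit assay: human recombinant HDAC1 or HDAC6 (0.3 μg) reacted with 10 μM Fluor de Lys-SIRT1 substrate and 5-fold serially diluted compound for 60 minutes at 30° C, followed by 30 minutes of developer. Fluorescence was read at Ex 360/Em 460, and IC50 values were calculated from it.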

T1 sequence (Q13547 whole entry): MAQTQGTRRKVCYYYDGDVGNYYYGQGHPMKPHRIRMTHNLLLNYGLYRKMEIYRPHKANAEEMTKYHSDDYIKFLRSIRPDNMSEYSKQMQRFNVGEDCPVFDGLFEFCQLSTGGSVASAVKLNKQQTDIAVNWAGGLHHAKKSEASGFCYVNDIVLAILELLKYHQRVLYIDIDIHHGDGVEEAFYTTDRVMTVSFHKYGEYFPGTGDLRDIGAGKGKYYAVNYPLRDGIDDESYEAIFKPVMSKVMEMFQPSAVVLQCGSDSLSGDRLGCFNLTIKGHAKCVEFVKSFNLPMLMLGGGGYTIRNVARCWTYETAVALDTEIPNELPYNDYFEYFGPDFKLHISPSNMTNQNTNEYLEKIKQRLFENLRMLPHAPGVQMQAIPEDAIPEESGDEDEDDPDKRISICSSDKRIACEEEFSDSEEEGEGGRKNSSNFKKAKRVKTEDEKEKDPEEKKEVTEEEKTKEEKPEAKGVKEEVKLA

Row | IC50 (human recombinant HDAC1) | HDAC6 selectivity (fold) (human recombinant HDAC6) | IC50 (human recombinant HDAC6) | Compound
1 | – | 3448 fold | 29 nM | CS(=O)(=O)N1CC(C(=O)N(Cc2ccc(-c3nnc(C(F)F)o3)cc2F)c2cccc(F)c2)C1 [Compound 11333, N-(4-(5-(difluoromethyl)-1,3,4-oxadiazol-2-yl)-2-fluorobenzyl)-N-(3-fluorophenyl)-1-(methylsulfonyl)azetidine-3-carboxamide]
2 | – | 2326 fold | 43 nM | CC(C)C(=O)N1CC(C(=O)N(Cc2ccc(-c3nnc(C(F)F)o3)cc2F)c2cccc(F)c2)C1 [Compound 11332, N-(4-(5-(difluoromethyl)-1,3,4-oxadiazol-2-yl)-2-fluorobenzyl)-N-(3-fluorophenyl)-1-isobutyrylazetidine-3-carboxamide]
3 | – | 1961 fold | 51 nM | CCC(=O)N(Cc1ccc(-c2nnc(C(F)F)o2)cc1F)c1cccc(F)c1 [Compound 11356, N-(4-(5-(difluoromethyl)-1,3,4-oxadiazol-2-yl)-2-fluorobenzyl)-N-(3-fluorophenyl)propionamide]
4 | – | 1163 fold | 86 nM | O=C(CN1CCOCC1)N(Cc1ccc(-c2nnc(C(F)F)o2)cc1F)c1ccc(F)c(Cl)c1 [Compound 11535, N-(3-chloro-4-fluorophenyl)-N-(4-(5-(difluoromethyl)-1,3,4-oxadiazol-2-yl)-2-fluorobenzyl)-2-morpholinoacetamide]
5 | – | 2941 fold | 34 nM | O=C(c1ccncc1)N(Cc1ccc(-c2nnc(C(F)(F)F)o2)cn1)c1cccc(F)c1 [Compound 11359, N-(3-fluorophenyl)-N-((5-(5-(trifluoromethyl)-1,3,4-oxadiazol-2-yl)pyridin-2-yl)methyl)isonicotinamide]

Continued, compound first:

Row | Compound | IC50 (human recombinant HDAC1) | HDAC6 selectivity (fold) (human recombinant HDAC6) | IC50 (human recombinant HDAC6)
6 | O=C(C1CCN(Cc2ccccc2)CC1)N(Cc1ccc(-c2nnc(C(F)(F)F)o2)cc1)c1ccccc1 [Compound 11166, 1-benzyl-N-phenyl-N-(4-(5-(trifluoromethyl)-1,3,4-oxadiazol-2-yl)benzyl)piperidine-4-carboxamide] | 27200 nM | 194 fold | 516 nM
7 | CCC(=O)N1CC(C(=O)N(Cc2ccc(-c3nnc(C(F)F)o3)cc2F)c2ccccc2)C1 [Compound 11242, N-(4-(5-(difluoromethyl)-1,3,4-oxadiazol-2-yl)-2-fluorobenzyl)-N-phenyl-1-propionylazetidine-3-carboxamide] | – | 2564 fold | 39 nM
8 | CCN1CCC(C(=O)N(Cc2ccc(-c3nnc(C(F)(F)F)o3)cc2)c2ccccc2)CC1 [Compound 11141, 1-ethyl-N-phenyl-N-(4-(5-(trifluoromethyl)-1,3,4-oxadiazol-2-yl)benzyl)piperidine-4-carboxamide] | – | 306 fold | 327 nM
9 | CS(=O)(=O)N1CC(C(=O)N(Cc2ccc(-c3nnc(C(F)(F)F)o3)cc2)c2ccccc2)C1 [Compound 11160, 1-(methylsulfonyl)-N-phenyl-N-(4-(5-(trifluoromethyl)-1,3,4-oxadiazol-2-yl)benzyl)azetidine-3-carboxamide] | – | 606 fold | 165 nM
10 | CCN1CC(C(=O)N(Cc2ccc(-c3nnc(C(F)(F)F)o3)cc2)c2ccccc2)C1 [Compound 11139, 1-ethyl-N-phenyl-N-(4-(5-(trifluoromethyl)-1,3,4-oxadiazol-2-yl)benzyl)azetidine-3-carboxamide] | – | 775 fold | 129 nM
11 | CC(=O)N1CCC(C(=O)N(Cc2ccc(-c3nnc(C(F)(F)F)o3)cc2F)c2ccccc2)CC1 [Compound 11203, 1-acetyl-N-(2-fluoro-4-(5-(trifluoromethyl)-1,3,4-oxadiazol-2-yl)benzyl)-N-phenylpiperidine-4-carboxamide] | – | 694 fold | 144 nM
12 | O=C(c1ccncc1)N(Cc1ccc(-c2nnc(C(F)(F)F)o2)cc1F)c1cccc(F)c1 [Compound 11188, N-(2-fluoro-4-(5-(trifluoromethyl)-1,3,4-oxadiazol-2-yl)benzyl)-N-(3-fluorophenyl)isonicotinamide] | – | 935 fold | 107 nM
13 | CN1CC(C(=O)N(Cc2ccc(-c3nnc(C(F)F)o3)cc2F)c2cccc(F)c2)C1 [Compound 11325, N-(4-(5-(difluoromethyl)-1,3,4-oxadiazol-2-yl)-2-fluorobenzyl)-N-(3-fluorophenyl)-1-methylazetidine-3-carboxamide] | – | 1111 fold | 90 nM

Reference: US10584117B2, “1,3,4-oxadiazole amide derivative compound as histone deacetylase 6 inhibitor, and pharmaceutical composition containing same” (Chong Kun Dang Pharmaceutical Corp., priority 2015, dated 2020)
